# In patent publication US20250026762A1, “FUSED PYRAZOLE UREA ANALOGS AS GLUCOSYLCERAMIDE SYNTHASE INHIBITORS” (Merck Sharp & Dohme LLC, priority 2021, published 2025):
# Molecular target: glucosylceramide synthase (GCS) enzyme in Golgi preparations from human A375 malignant melanoma skin cells (Homo sapiens (Human), UniProt Q16739)
# Experiment: UDP-Glo glucosylceramide synthase biochemical assay
# Settings: 1.5 μg crude golgi preparation; C6 ceramide and UDP-glucose at 2×Km; 20 h incubation at room temperature; luminescence
# Description: UDP-Glo™ Glucosylceramide Synthase Biochemical Assay
# A UDP-Glo™ glucosylceramide synthase biochemical assay was utilized to evaluate the effect of test compounds on the activity of endogenous levels of GCS enzyme contained within Golgi preparations isolated from human A375 malignant melanoma skin cells. The UDP-Glo™ glucosylceramide synthase assay uses UDP-Glucose as a nucleotide-glycosyl donor and ceramide as substrate acceptor molecules. In the reaction, glucosylceramide synthase (GCS) transfers glucose from UDP-Glucose to ceramide. Glucosylceramide and UDP are released as products.
# Using Promega's UDP-Glo™ Glycosyltransferase assay kit (Promega Corporation, Madison, WI, USA (Promega)), GCS activity was indirectly measured by detecting the amount of UDP produced. An aliquot of GCS enzyme (1.5 μg crude golgi preparation, total protein) and titrated test compound were aliquoted to each well and incubated for 30 minutes at room temperature. Substrate mixture was prepared by mixing C6 ceramide (Avanti Polar Lipids, Alabaster, AL USA (Avanti)) (micelles prepared at 0.6 mM in 0.6 mM DOPC) and UDP-glucose (20 μM; Promega), at concentrations equivalent to 2×Km, in assay buffer (25 mM HEPES (pH 7.5), 50 mM KCl, 5 mM MgCl2). An equivalent volume of substrate mixture was then added to each well. Following a 20 h incubation at room temperature to allow for GCS turnover of substrate, an equal volume of UDP detection reagent (Promega) was added to each well and incubated for an additional 75 minutes at room temperature to simultaneously convert the accumulated UDP product into ATP and generate light in a luciferase reaction. The generated light was detected using a luminometer. […] luminescence values (RLUs) were normalized to mean “min” and “max” effects, as determined on each plate. “Min” was defined as the mean of the values of the wells treated with vehicle (DMSO) and which represent 0% inhibition; “max” was defined as the mean of the values of the wells treated with a reference inhibitor and which represent the 100% effect. Values for % Emax and EC50 were determined by best-fitting the normalized data to a curve in Activity Base along a four-parameter logistic nonlinear regression (4PL) model (based on the Levenberg-Marquardt algorithm and defined by the equation below): […]
# where: n is 4PMin (bottom of the curve); m is 4PMax (top of the curve); i is IP (inflection point of curve); andp is slope. See Levenberg, K., “A Method for the Solution of Certain Problems in Least Squares”, Quart. Appl. Math. 2, (1944), pp 164-168 and Marquardt, D., “An Algorithm for Least Squares Estimation on Nonlinear Parameters”, SIAM J. Appl. Math. 11, (1963) pp 431-441.
# Sequence of glucosylceramide synthase (GCS) enzyme in Golgi preparations from human A375 malignant melanoma skin cells (Q16739 whole entry): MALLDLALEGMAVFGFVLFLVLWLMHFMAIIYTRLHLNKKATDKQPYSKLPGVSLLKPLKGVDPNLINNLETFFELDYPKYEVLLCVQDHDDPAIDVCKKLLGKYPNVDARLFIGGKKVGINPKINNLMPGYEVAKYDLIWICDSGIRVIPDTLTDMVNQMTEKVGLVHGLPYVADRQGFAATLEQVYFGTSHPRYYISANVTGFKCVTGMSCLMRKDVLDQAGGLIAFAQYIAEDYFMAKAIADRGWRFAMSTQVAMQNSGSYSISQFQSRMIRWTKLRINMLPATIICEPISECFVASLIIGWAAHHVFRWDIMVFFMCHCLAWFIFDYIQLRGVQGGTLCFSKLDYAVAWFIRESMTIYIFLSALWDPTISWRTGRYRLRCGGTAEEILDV
row,Structure (SMILES),EC50 [nM]
1,"O=C(N1CCN2CCC1CC2)n1nc(C23CCCC2C3)c2c1CCC2 (single isomer, unassigned) [Compound 9, R or S-(3-(bicyclo[3.1.0]hexan-1-yl)-5,6-dihydrocyclopenta[c]pyrazol-1(4H)-yl)(1,4-diazabicyclo[3.2.2]nonan-4-yl)methanone]",2.4
2,"O=C(N1CCN2CCC1CC2)n1nc(-c2ccc(F)cc2)c2c1C1CC1CC2 (single isomer, unassigned) [Compound 10]",0.3
3,"O=C(N1CCN2CCC1CC2)n1nc(-c2ccc(F)cc2)c2c1CC1CC21 (single isomer, unassigned) [Compound 15, (R,R) or (S,S)--(1,4-diazabicyclo[3.2.2]nonan-4-yl)(3-(4-fluorophenyl)-3b,4,4a,5-tetrahydro-1H-cyclopropa[3,4]cyclopenta[1,2-c]pyrazol-1-yl)methanone]",0.1
4,"CC1CCc2c(-c3ccc(F)cc3)nn(C(=O)N3CCN4CCC3CC4)c21 (single isomer, unassigned) [Compound 16, R or S-(1,4-diazabicyclo[3.2.2]nonan-4-yl)(3-(4-fluorophenyl)-6-methyl-5,6-dihydrocyclopenta[c]pyrazol-1(4H)-yl)methanone]",0.4
5,"O=C(N1CCN2CCC1CC2)n1nc(-c2ccc(F)cc2)c2c1COCC2 [Compound 1, 1,4-diazabicyclo[3.2.2]nonan-4-yl(3-(4-fluorophenyl)-4,5-dihydropyrano[3,4-c]pyrazol-1(7H)-yl)methanone]",5.1
6,"O=C(N1CCN2CCC1CC2)n1nc(-c2ccc(OC(F)F)c(Cl)c2)c2c1COCC2 [Compound 2, 1,4-diazabicyclo[3.2.2]nonan-4-yl(3-(3-chloro-4-(difluoromethoxy)phenyl)-4,5-dihydropyrano[3,4-c]pyrazol-1(7H)-yl)methanone]",2.9
7,"COc1ccc(-c2nn(C(=O)N3CCN4CCC3CC4)c3c2CCOC3)cc1Cl [Compound 3, 1,4-diazabicyclo[3.2.2]nonan-4-yl(3-(3-chloro-4-methoxyphenyl)-4,5-dihydropyrano[3,4-c]pyrazol-1(7H)-yl)methanone]",1.4
8,"COc1ccc(-c2nn(C(=O)N3CCN4CCC3CC4)c3c2CCC3)cc1 [Compound 4, 1,4-diazabicyclo[3.2.2]nonan-4-yl-[3-(4-methoxyphenyl)-5,6-dihydro-4H-cyclopenta[c]pyrazol-1-yl]methanone]",0.2
9,"O=C(N1CCN2CCC1CC2)n1nc(-c2ccc(OC(F)F)cc2)c2c1CCC2 [Compound 5, 1,4-diazabicyclo[3.2.2]nonan-4-yl-[3-[4-(difluoromethoxy)phenyl]-5,6-dihydro-4H-cyclopenta[c]pyrazol-1-yl]methanone]",0.3
10,"COc1ncc(-c2nn(C(=O)N3CCN4CCC3CC4)c3c2CCC3)cc1Cl [Compound 6, [3-(5-chloro-6-methoxy-3-pyridyl)-5,6-dihydro-4H-cyclopenta[c]pyrazol-1-yl]-(1,4-diazabicyclo[3.2.2]nonan-4-yl)methanone]",0.4
11,"O=C(N1CCN2CCC1CC2)n1nc(-c2ccc(F)c(Cl)c2)c2c1COCC2 [Compound 7, [3-(3-chloro-4-fluoro-phenyl)-5,7-dihydro-4H-pyrano[3,4-c]pyrazol-1-yl]-(1,4-diazabicyclo[3.2.2]nonan-4-yl)methanone]",1
12,"COc1ncc(-c2nn(C(=O)N3CCN4CCC3CC4)c3c2C[C@@H]2C[C@H]32)cc1Cl [Compound 8, (1,4-diazabicyclo[3.2.2]nonan-4-yl)((4aS,5aS)-3-(5-chloro-6-methoxypyridin-3-yl)-4,4a,5,5a-tetrahydro-1H-cyclopropa[4,5]cyclopenta[1,2-c]pyrazol-1-yl)methanone]",0.1
13,"O=C(N1CCN2CCC1CC2)n1nc(-c2ccc(F)cc2)c2c1[C@H]1C[C@H]1C2 [Compound 11, (1,4-diazabicyclo[3.2.2]nonan-4-yl)((4aS,5aS)-3-(4-fluorophenyl)-4,4a,5,5a-tetrahydro-1H-cyclopropa[4,5]cyclopenta[1,2-c]pyrazol-1-yl)methanone]",0.1
14,"O=C(N1CCN2CCC1CC2)n1nc(-c2ccc(F)cc2)c2c1CCC2 [Compound 12, 1,4-diazabicyclo[3.2.2]nonan-4-yl-[3-(4-fluorophenyl)-5,6-dihydro-4H-cyclopenta[c]pyrazol-1-yl]methanone]",0.3
15,"O=C(N1CCN2CCC1CC2)n1nc(-c2ccc(F)cc2)c2c1CCOC2 [Compound 13, 1,4-diazabicyclo[3.2.2]nonan-4-yl-[3-(4-fluorophenyl)-6,7-dihydro-4H-pyrano[4,3-c]pyrazol-1-yl]methanone]",4.1
16,"O=C(N1CCN2CCC1CC2)n1nc(-c2ccc(F)cc2)c2c1C1CCC2C1 [Compound 14, (R,R) and (S,S)-(1,4-diazabicyclo[3.2.2]nonan-4-yl)(3-(4-fluorophenyl)-4,5,6,7-tetrahydro-1H-4,7-methanoindazol-1-yl)methanone]",1.2
17,"CC1(C)COc2c(-c3ccc(F)cc3)nn(C(=O)N3CCN4CCC3CC4)c21 [Compound 17, (1,4-diazabicyclo[3.2.2]nonan-4-yl)(3-(4-fluorophenyl)-6,6-dimethyl-5,6-dihydro-1H-furo[3,2-c]pyrazol-1-yl)methanone]",10.1
18,"CC1(C)Cc2c(c(-c3ccc(F)cc3)nn2C(=O)N2CCN3CCC2CC3)CO1 [Compound 18, (1,4-diazabicyclo[3.2.2]nonan-4-yl)(3-(4-fluorophenyl)-6,6-dimethyl-6,7-dihydropyrano[4,3-c]pyrazol-1(4H)-yl)methanone]",9.8
19,"O=C(N1CCN2CCC1CC2)n1nc(-c2ccc(F)cc2)c2c1CCC(F)(F)C2 [Compound 19, (1,4-diazabicyclo[3.2.2]nonan-4-yl)(5,5-difluoro-3-(4-fluorophenyl)-4,5,6,7-tetrahydro-1H-indazol-1-yl)methanone]",8.2
20,"O=C(N1CCN2CCC1CC2)n1nc(-c2ccc(F)cc2)c2c1CC(F)(F)C2 [Compound 20, (1,4-diazabicyclo[3.2.2]nonan-4-yl)(5,5-difluoro-3-(4-fluorophenyl)-5,6-dihydrocyclopenta[c]pyrazol-1(4H)-yl)methanone]",4.7
21,"O=C(N1CCN2CCC1CC2)n1nc(-c2ccc(F)cc2)c2c1CC(O)C2 (stereo not drawn) [Compound 21, R and S-(1,4-diazabicyclo[3.2.2]nonan-4-yl)(3-(4-fluorophenyl)-5-hydroxy-5,6-dihydrocyclopenta[c]pyrazol-1(4H)-yl)methanone]",19.3
22,"Cn1ncc2ccc(-c3nn(C(=O)N4CCN5CCC4CC5)c4c3CCC4)cc21 [Compound 22, 1,4-diazabicyclo[3.2.2]nonan-4-yl-[3-(1-methylindazol-6-yl)-5,6-dihydro-4H-cyclopenta[c]pyrazol-1-yl]methanone]",6.3
23,"O=C(N1CCN2CCC1CC2)n1nc(-c2ccc(Cl)cn2)c2c1COCC2 [Compound 23, (1,4-diazabicyclo[3.2.2]nonan-4-yl)(3-(5-chloropyridin-2-yl)-4,7-dihydropyrano[3,4-c]pyrazol-1(5H)-yl)methanone]",3.7
24,"CC1(C)CCCN(c2nn(C(=O)N3CCN4CCC3CC4)c3c2CCC3)C1 [Compound 24, (1,4-diazabicyclo[3.2.2]nonan-4-yl)(3-(3,3-dimethylpiperidin-1-yl)-5,6-dihydrocyclopenta[c]pyrazol-1(4H)-yl)methanone]",7.8
25,"O=C(N1CCN2CCC1CC2)n1nc(-n2nc(C(F)(F)F)ccc2=O)c2c1CCOC2 [Compound 25, 2-(1-(1,4-diazabicyclo[3.2.2]nonane-4-carbonyl)-1,4,6,7-tetrahydropyrano[4,3-c]pyrazol-3-yl)-6-(trifluoromethyl)pyridazin-3(2H)-one]",27
26,"O=C(N1CCN2CCC1CC2)n1nc(OC2CCCC2)c2c1CCC2 [Compound 26, (1,4-diazabicyclo[3.2.2]nonan-4-yl)(3-(cyclopentyloxy)-5,6-dihydrocyclopenta[c]pyrazol-1(4H)-yl)methanone]",23.3
27,O=C(N1CCN2CCC1CC2)n1nc(-c2cccc(Cl)c2F)c2c1COCC2 [Compound 27],1.6
28,"Cc1ccccc1-c1nn(C(=O)N2CCN3CCC2CC3)c2c1CCOC2 [Compound 28, (1,4-diazabicyclo[3.2.2]nonan-4-yl)(3-(o-tolyl)-4,7-dihydropyrano[3,4-c]pyrazol-1(5H)-yl)methanone]",6.6
